In patent US20230312580A1, “1-(5-(2-CYANOPYRIDIN-4-YL)OXAZOLE-2-CARBONYL)-4-METHYLHEXAHYDROPYRROLO[3,4-B]PYR ROLE-5(1H)-CARBONITRILE AS USP30 INHIBITOR FOR USE IN THE TREATMENT OF MITOCHONDRIAL DYSFUNCTION, CANCER AND FIBROSIS” (MISSION THERAPEUTICS LIMITED, priority 2020, published 2023):
In brackets after ≈: the same amount, converted by molar mass.

Experiments:
[1] = molecular target: UCHL1 (Homo sapiens (Human), UniProt P09936); test: UCHL1 DUB IC50; type: biochemical
[2] = tested on: USP2, USP6, USP10, USP16, USP21, USP25, USP28; test: DUB IC50 selectivity panel (seven DUBs); type: biochemical; conditions: range over the seven DUBs
[3] = molecular target: Cathepsin B (Homo sapiens (Human), UniProt P07858); test: Cathepsin B IC50; type: biochemical
[4] = molecular target: Cathepsin L (Homo sapiens (Human), UniProt P07711); test: Cathepsin L IC50; type: biochemical
Chain of Cathepsin L (P07711 114-333, species assumed): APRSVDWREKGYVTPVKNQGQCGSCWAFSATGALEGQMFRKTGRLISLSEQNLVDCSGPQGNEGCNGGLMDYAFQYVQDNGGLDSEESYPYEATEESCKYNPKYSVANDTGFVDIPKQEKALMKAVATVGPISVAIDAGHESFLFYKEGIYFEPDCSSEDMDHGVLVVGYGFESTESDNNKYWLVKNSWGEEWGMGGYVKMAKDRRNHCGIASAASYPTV

[5] = molecular target: Cathepsin V (Homo sapiens (Human), UniProt O60911); test: Cathepsin V IC50; type: biochemical
Chain of Cathepsin V (O60911 114-334, species assumed): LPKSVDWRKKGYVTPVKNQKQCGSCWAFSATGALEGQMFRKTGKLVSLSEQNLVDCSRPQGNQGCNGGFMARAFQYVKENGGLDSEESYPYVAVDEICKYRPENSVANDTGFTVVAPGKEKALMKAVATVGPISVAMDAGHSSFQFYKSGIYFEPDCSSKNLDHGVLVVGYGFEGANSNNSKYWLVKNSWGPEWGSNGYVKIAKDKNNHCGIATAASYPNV

[6] = tested on: cathepsins (B, K, L, S and V); test: Cathepsin IC50 panel, summary over B, K, L, S, V; type: biochemical; conditions: range over the five cathepsins
[7] = tested on: Eurofins CEREP SafetyScreen44 panel; test: Eurofins CEREP SafetyScreen44 panel profiling; type: binding; conditions: single concentration of 10 µM
Source text: Aside from selectivity over other DUB enzymes, it is important for a drug to have low affinity for other targets, and pharmacological profiling may be performed against panels of targets to assess the potential for, and to minimise, potential off-target effects. Examples of targets for which the compounds of the present invention may be screened against are those of the industry standard Eurofins-Cerep SafetyScreen44 panel, which includes 44 targets as a representative selection of GPCR receptors, transporters, ion channels, nuclear receptors, and kinase and non-kinase enzymes. Preferably, compounds of the invention have insignificant affinity against targets of this screening panel. Further examples of targets for which the compounds of the present invention may be screened against are kinases of the Thermo Fisher SelectScreen kinase profiling panel, which includes 39 targets as a representative selection of kinase enzymes. Preferably, compounds of the invention have insignificant affinity against targets of this screening panel. Additionally, examples of a particular enzyme class for which the compounds of the present invention may be screened against are the cathepsins (e.g. cathepsin A, B, C, H, K, L, L2, S, V and Z). Preferably, compounds of the invention have good selectivity for USP30 over one or more of these enzymes.

[8] = molecular target: hERG potassium channel (Homo sapiens (Human), UniProt Q12809); test: hERG potassium channel current in stably expressed CHO cells; type: cell-based; conditions: at 30 µM, 0.01 to 30 µM tested
Chain of hERG potassium channel (Q12809 whole entry): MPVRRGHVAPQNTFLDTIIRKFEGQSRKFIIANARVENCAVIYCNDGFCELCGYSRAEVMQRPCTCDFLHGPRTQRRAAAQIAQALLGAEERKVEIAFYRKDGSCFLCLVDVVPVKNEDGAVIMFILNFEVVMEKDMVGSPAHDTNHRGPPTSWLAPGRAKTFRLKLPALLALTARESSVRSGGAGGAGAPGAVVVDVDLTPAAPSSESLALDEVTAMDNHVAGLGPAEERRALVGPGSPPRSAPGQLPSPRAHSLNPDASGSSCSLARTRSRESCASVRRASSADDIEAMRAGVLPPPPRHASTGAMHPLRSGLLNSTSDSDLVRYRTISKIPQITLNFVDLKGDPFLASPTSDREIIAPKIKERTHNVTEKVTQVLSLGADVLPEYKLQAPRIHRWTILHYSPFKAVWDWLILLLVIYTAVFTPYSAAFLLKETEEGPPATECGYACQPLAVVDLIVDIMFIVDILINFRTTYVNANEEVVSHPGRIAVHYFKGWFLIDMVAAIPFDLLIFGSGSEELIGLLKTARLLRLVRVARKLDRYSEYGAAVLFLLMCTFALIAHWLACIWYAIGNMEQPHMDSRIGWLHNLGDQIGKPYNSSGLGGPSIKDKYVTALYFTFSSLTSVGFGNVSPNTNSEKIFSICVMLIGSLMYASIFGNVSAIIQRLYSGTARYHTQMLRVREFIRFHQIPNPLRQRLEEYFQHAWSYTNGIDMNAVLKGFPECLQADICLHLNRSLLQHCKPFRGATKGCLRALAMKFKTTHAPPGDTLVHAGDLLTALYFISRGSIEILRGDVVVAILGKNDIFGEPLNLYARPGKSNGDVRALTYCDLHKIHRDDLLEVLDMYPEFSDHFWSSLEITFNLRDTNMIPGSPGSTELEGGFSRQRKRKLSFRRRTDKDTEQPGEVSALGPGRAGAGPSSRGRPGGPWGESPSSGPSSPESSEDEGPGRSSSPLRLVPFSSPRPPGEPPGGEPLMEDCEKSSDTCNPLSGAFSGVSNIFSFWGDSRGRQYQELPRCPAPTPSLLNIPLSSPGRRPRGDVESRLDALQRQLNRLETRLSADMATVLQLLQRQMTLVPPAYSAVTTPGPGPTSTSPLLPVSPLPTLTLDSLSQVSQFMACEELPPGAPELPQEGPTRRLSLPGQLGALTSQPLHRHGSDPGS
Source text: The hERG predictor assay provides valuable information about the possible binding of test compounds to the potassium channel and potential QT prolongation on […]. Inhibition of the hERG current causes QT interval prolongation resulting in potentially fatal ventricular tachyarrhythmia (Torsades de Pointes). Typically, assay data may be generated from an automated patch-clamp assay platform.

[9] = tested on: TK6 cells; test: In vitro micronucleus assay; type: cell-based; conditions: 27 hours recovery
Procedure: The micronucleus assay may be used to determine if a compound is genotoxic by evaluating the presence of micronuclei. Micronuclei may contain chromosome fragments produced from DNA breakage (clastogens) or whole chromosomes produced by disruption of the mitotic apparatus (aneugens).
Induction of chromosome damage was assessed using the in vitro micronucleus assay in TK6 cells.

[10] = tested on: HCT116 human colorectal carcinoma cells; test: In vitro cytotoxicity (Cell Tox), alamarBlue; type: cell-based; conditions: HCT-116, 96-hour continual compound exposure
Source text: There is also a need for compounds that have a favourable safety profile, which may be measured by a variety of standard in vitro and in vivo methods. A cell toxicity counter-screen may be used to assay the anti-proliferative/cytotoxic effect in a particular cell line (e.g. HCT116) by fluorometric detection of rezasurin (alamarBlue™) to resofurin in response to mitochondrial activity.
In Vitro Cytotoxicity (Cell Tox): Measured in HCT116 human colorectal carcinoma cells using alamarBlue™ as the assay endpoint. Compound cytotoxicity was measured over a period of 96-hour continual compound exposure.

[11] = Log D lipophilicity measurement; type: physicochemical; conditions: pH 7.4; read-out: Log D measured at pH 7.4
Source text: log D: distribution co-efficient; lipophilicity measurement.

[12] = Turbidimetric solubility; type: physicochemical; conditions: aqueous buffer, kinetic from dmso stock
Source text: The solubility of a compound is an important factor in achieving a desired concentration of drug in systemic circulation for the anticipated pharmacological response. Low aqueous solubility is a problem encountered with formulation development of new chemical entities and to be absorbed a drug must be present in the form of solution at the site of absorption. The kinetic solubility of a compound may be measured using a turbidimetric solubility assay, the data from which may also be used in conjunction with Caco-2 permeability data to predict dose dependent human intestinal absorption.
Turbidimetric solubility: Test compound solution prepared in DMSO diluted into aqueous buffer. Turbidimetry is used as the end-point by measuring absorbance at 620 nm.

[13] = FaSSIF solubility; type: physicochemical; conditions: pH 6.5, fasted state simulated intestinal fluid
Source text: FaSSIF: simulated intestinal fluid in fasted state measured at pH 6.5.

[14] = Hepatocyte Cl mouse; type: in vitro ADME; conditions: mouse hepatocytes
Procedure: Hep Cl mouse: in vitro hepatocyte clearance in mouse cells.
(§1) Clu: in vitro clearance. Clu as defined here is the scaled clearance, in turn calculated from the intrinsic clearance. The intrinsic clearance is the predicted clearance due to hepatic metabolic reactions, determined from incubation of a compound in a hepatocyte preparation.

[15] = Hepatocyte Cl human; type: in vitro ADME; conditions: human hepatocytes
Procedure: Hep Cl human: in vitro hepatocyte clearance in human cells.
as §1

[16] = Mouse plasma stability; type: in vitro ADME; conditions: for half-life: read-out: Stability Mouse plasma t½
Source text: Other parameters that may be measured using standard assays that are indicative of a compound’s exposure profile include, for example plasma stability (half-life measurement), blood AUC, Cmax, Cmin and Tmax values.

[17] = WT-MDCK in vitro flux; type: in vitro ADME; conditions: dog
[18] = Plasma binding mouse (equilibrium dialysis); type: in vitro ADME; conditions: read-out: Binding Mouse Plasma fu,p
Source text: (§2) Plasma fu,p: The free fraction of a compound in plasma preparation determined by in vitro equilibrium dialysis. It is understood that only unbound (free) compound is capable of engaging with the target. Brain fu,br: The free fraction of a compound in brain homogenate preparation determined by in vitro equilibrium dialysis. It is understood that only unbound (free) compound is capable of engaging with the target.

[19] = Brain homogenate binding mouse (equilibrium dialysis); type: in vitro ADME; conditions: read-out: Binding Mouse Brain fu,br
Source text: as §2

[20] = PK mouse (IV and oral); type: in vivo; conditions: plasma
Source text: Cl in vivo clearance: Pharmacokinetic measurement of the volume of plasma (or any matrix) from which a substance is completely removed per unit time.

[21] = Mouse PK microdialysis; type: in vivo
Source text: (§3) Kpuu is the ratio of unbound drug in brain to unbound drug in plasma and may be indicative of potential for treating peripheral and/or CNS indications.

[22] = Rat PK microdialysis; type: in vivo; conditions: microdialysis 30 mg/kg po
Source text: as §3

[23] = Dog PK (CSF); type: in vivo
Source text: as §3

[24] = tested on: UUO injured kidneys; test: Unilateral ureteral obstructive kidney disease model (UUO); type: in vivo, C57BL/6 mice; conditions: 10 days
Source text: UUO causes renal injury characterised by tubular cell injury, interstitial inflammation and fibrosis. It serves as a model of irreversible post-renal acute kidney injury (AKI). Experimental UUO has illustrated the molecular mechanisms of apoptosis, inflammation and fibrosis, all of which are key processes in renal injury, regardless of the primary insult. Consequently, the UUO model provides investigators information beyond obstruction (Chevalier et al, 2009, Kidney Int 75(11): 1145-1152). Example 1 was assessed in the UUO model to determine the ability of the compound to attenuate progressive tubulointerstitial fibrosis and chronic kidney disease (CKD). […] Two hours post dosing on day 1 study mice underwent surgery to ligate the left ureter at two points. Successful UUO surgery was later confirmed by observation of dilation of renal pelvis due to hydronephrosis. The animals were dosed according to their prescribed regimen for 10 days at which point kidneys were harvested, or histopathology assessment and for protein/RNA assessment. Picrosirius Red staining was performed to assess the extent of collagen deposition and IHC was employed to assess relative α-Smooth Muscle Actin (α-SMA) expression.

[25] = tested on: Salmonella typhimurium strains TA98, TA100, TA1535 and TA97a and the Escherichia Coli strain WP2 uvrA pKM101; test: Bacterial reverse mutation assay (Ames); conditions: up to 5000 µg/plate with and without metabolic activation
Procedure: The bacterial reverse mutation assay (Ames Test) may be used to evaluate the mutagenic properties of compounds of the invention, commonly by using the bacterial strain Salmonella typhimurium, which is mutant for the biosynthesis of the amino acid histidine.
All in vitro tests were conducted with and without exogenous metabolic activation using concentrations up to those limited by cytotoxicity or insolubility.

[26] = molecular target: USP30 (Homo sapiens (Human), UniProt Q70CQ3); test: USP30 biochemical IC50 assay (fluorescence polarisation); conditions: biochemical FP assay, 30 min enzyme/compound incubation
Chain of USP30 (Q70CQ3 57-517): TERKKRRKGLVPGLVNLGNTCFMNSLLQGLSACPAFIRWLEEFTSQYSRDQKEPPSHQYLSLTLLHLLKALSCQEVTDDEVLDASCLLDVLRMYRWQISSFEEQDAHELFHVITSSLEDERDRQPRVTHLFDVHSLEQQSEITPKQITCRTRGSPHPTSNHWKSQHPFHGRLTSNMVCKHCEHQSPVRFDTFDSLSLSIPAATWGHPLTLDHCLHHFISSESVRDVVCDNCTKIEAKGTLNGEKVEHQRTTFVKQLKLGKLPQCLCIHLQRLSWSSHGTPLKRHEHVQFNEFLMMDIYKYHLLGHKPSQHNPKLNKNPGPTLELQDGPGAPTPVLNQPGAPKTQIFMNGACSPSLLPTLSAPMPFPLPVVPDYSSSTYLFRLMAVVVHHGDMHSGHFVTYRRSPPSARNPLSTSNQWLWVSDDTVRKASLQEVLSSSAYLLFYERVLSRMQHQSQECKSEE
Procedure: Compounds of the invention may be tested for USP30 affinity using the in vitro biochemical fluorescence polarization (FP) assay described herein.
Dilution plates were prepared at 21 times the final concentration (2100 µM for a final concentration of 100 µM) in 50% DMSO in a 96-well polypropylene V-bottom plate (Greiner #651201). A typical 8-point dilution series would be 100, 30, 10, 3, 1, 0.3, 0.1, 0.03 µM final. Reactions were performed in duplicate in black 384 well plates (small volume, Greiner 784076) in a final reaction volume of 21 µl. Either 1 µl of 50% DMSO or diluted compound was added to the plate. USP30 (Boston Biochem #E582) was diluted in reaction buffer (40 mM Tris, pH 7.5, 0.005% Tween 20, 0.5 mg/ml BSA, 5 mM beta-mercaptoethanol) to achieve a final assay concentration of 4 nM, and 10 µl of diluted USP30 was added to the compound. Enzyme and compound were incubated for 30 min at room temp. Reactions were initiated by the addition of 50 nM of TAMRA labelled peptide linked to ubiquitin via an iso-peptide bond as fluorescence polarisation substrate. Reactions were read immediately after addition of substrate and following a 2-hour incubation at room temperature. Readings were performed on a Pherastar Plus (BMG Labtech). λ Excitation 540 nm; λ Emission 590 nm.

Chain of UCHL1 (P09936 whole entry, species assumed): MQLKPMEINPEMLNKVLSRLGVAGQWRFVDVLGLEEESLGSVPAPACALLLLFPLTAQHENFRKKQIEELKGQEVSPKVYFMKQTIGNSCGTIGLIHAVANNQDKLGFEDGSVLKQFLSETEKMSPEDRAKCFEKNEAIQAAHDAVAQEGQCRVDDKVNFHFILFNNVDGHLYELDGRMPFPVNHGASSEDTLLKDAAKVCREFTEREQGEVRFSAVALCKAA

SMILES: N#CN1CC[C@H](C(=O)Nc2ncc(-c3ccccc3)s2)C1 [D]
- fold more potent against USP30 than UCHL1 [1]: 0.8 fold

SMILES: C[C@@H]1[C@H]2CCN(C(=O)c3ncc(-c4ccnc(C#N)c4)o3)[C@H]2CN1C#N (single isomer, unassigned) [Example 1]
- IC50 [2]: 24.9 to 107 µM
- IC50 [1]: > 300 µM
- IC50 [3]: 205 µM
- IC50 [4]: 42.1 µM
- IC50 [5]: 247 µM
- IC50 [6]: ≥ 42.1 µM
- inhibition of binding or enzyme activity against all targets in the panel [7]: less than 50%
- maximum inhibition of the hERG current amplitude [8]: 27%
- induction of micronuclei ([9]; 3 hours in the presence of exogenous metabolic activation): negative
- induction of micronuclei ([9]; 27 hours in the absence of exogenous metabolic activation): negative
- EC50 [10]: > 30 µM
- logD [11]: 1.4
- solubility [12]: 65 µM (≈ 22.6 µg/mL)
- FaSSIF (µM) measured at pH 6.5 [13]: 488 µM
- Hepatocyte Cl mouse scaled Clu [14]: 40 mL/min/kg
- Hepatocyte Cl human scaled Clu [15]: 18 mL/min/kg
- improved plasma stability compared to Reference Examples A, B and C [16]: 2 to 8 fold
- half-life [16]: > 120 min
- Papp A→B [17]: 16 ×10⁻⁶ cm/s
- fraction unbound [18]: 0.14
- fraction unbound [19]: 0.3
- bioavailability ([20]; po, mouse 10 mg/kg, read-out: Oral F (%)): 87%
- clearance ([20]; mouse 2 mg/kg IV, read-out: Cl plasma): 19 mL/min/kg
- CNS distribution in vivo by microdialysis sampling of brain regions ([21]; 30 mg/kg oral dose in mice and rats): high CNS distribution
- Mouse Kpuu (PFCu/plasmau) ([21]; microdialysis 30 mg/kg po): 0.90
- Mouse PFCu/cell TOM20-Ub ([21]; microdialysis 30 mg/kg po): 125-fold
- Rat Kpuu (PFCu/plasmau) [22]: 0.43
- Dog Kpuu (CSF/plasmau) ([23]; 30 mg/kg po): 0.41
- partition to the cerebro-spinal fluid (CSF) ([23]; dogs, 30 mg/kg orally): high partition
- α-SMA levels in UUO injured kidneys vs vehicle ([24]; 1.5 mg/kg oral BID): statistical reduction in α-SMA levels
- collagen deposition (picrosirius red staining) in ligated kidneys ([24]; 1.5 mg/kg p.o. BID): statistically reduced collagen deposition
- collagen deposition (picrosirius red staining) in ligated kidneys ([24]; 5 mg/kg p.o. BID): statistically reduced collagen deposition
- induction of mutations in reverse mutation assay [25]: did not induce mutations

SMILES: COc1ccc(-c2cc(C(=O)N3CC[C@@H]4CN(C#N)C[C@@H]43)on2)cc1 [B]
- IC50 [26]: 0.07 µM
- IC50 [2]: 0.54 to 38.8 µM
- IC50 [3]: 1.4 µM
- IC50 [4]: 1.8 µM
- IC50 [5]: 2.3 µM
- Hepatocyte Cl mouse scaled Clu [14]: > 121 mL/min/kg
- half-life [16]: 21 min

SMILES: CC1CC(C(=O)Nc2ncc(-c3ccccc3)s2)CN1C#N (stereo not shown) [Reference Example E]
- fold more potent against USP30 than UCHL1 [1]: 1.5 fold

SMILES: Cc1cc(-c2cccc(C(=O)N3CC[C@@H]4CN(C#N)C[C@@H]43)c2)ccn1 [Reference Example C]
- IC50 [26]: 0.072 µM
- IC50 [2]: 4 to 92.4 µM
- IC50 [3]: 1.2 µM
- IC50 [4]: 1.3 µM
- IC50 [5]: 18.5 µM
- Hepatocyte Cl mouse scaled Clu [14]: 108 mL/min/kg
- half-life [16]: 16 min
